Source: patent US20240374631A1, “A COMPOSITION FOR IMPROVING GUT MICROBIOTA, BEHAVIOURAL PATTERN, ALPHA-SYNUCLEIN LEVELS, SLEEP PATTERN AND/OR SERUM MELATONIN” (GN Corporation Co Ltd, priority 2021, published 2024)

Test system: gut microbiota
Experiment: Gut microbiome analysis (16S rRNA sequencing of fecal samples) in STAM model of NASH
Type: in vivo, C57BL/6J mice
Text: The study is reported in accordance with Animal Research: Reporting of In Vivo Experiments (ARRIVE) guidelines. C57BL/6J mice were obtained from Japan SLC, Inc. (Japan). All animals used in this study were cared for under the following guidelines: Act on Welfare and Management of Animals (Ministry of the Environment, Japan, Act No. 105 of Oct. 1, 1973), standards relating to the care and management of laboratory animals and relief of pain (Notice No. 88 of the Ministry of the Environment, Japan, Apr. 28, 2006) and the guidelines for proper conduct of animal experiments (Science Council of Japan, Jun. 1, 2006). Protocol approvals were obtained from SMC Laboratories, Japan's IACUC (Study reference no: […] Mice were maintained in a specific pathogen-free (SPF) facility under controlled conditions of temperature (23±3° C.), humidity (50±20%), lighting (12-hour artificial light and dark cycles; light from 8:00 to 20:00) and air exchange. The STAM model of NASH was induced as previously described [D10]. Mice were given a single subcutaneous injection of 200 μg streptozotocin (STZ, Sigma-Aldrich, USA) solution 2 days after birth and fed with a high-fat diet (HFD, 57 kcal % fat, Cat #HFD32, CLEA Japan, Inc., Japan) from 4-9 weeks of age. All mice develop liver steatosis and diabetes and at […] mice had established steatohepatitis, histologically. Studygroups: There were five study groups, described below. Eight mice were included in each study group. Eight NASH mice were orally administered vehicle supplemented with AFO-202 Beta Glucan at a dose of 1 mg/kg in a volume of 5 mL/kg once daily from 6 to 9 weeks of age. Eight NASH mice were orally administered vehicle supplemented with Telmisartan at a dose of 10 mg/kg once daily from 6 to 9 weeks of age. Frequency: Fecal samples were collected at the 6 weeks of age (before administration) and 9 weeks of age (before sacrifice). Procedure: At 6 weeks of age, fecal samples were collected from each mouse by clean catch method. […] A sterile petri dish was placed on the bench. Gently massage the abdomen, position the bottom of mouse over a fresh petri dish, and collect 1-2 fecal pellets. At sacrifice, fecal samples were aseptically collected from cecum. The tubes with feces were placed on ice immediately. These tubes were snap frozen in liquid nitrogen and stored at -80° C. for shipping. In this analysis, the 16S rRNA sequence data acquired by the next-generation sequencer from the fecal […] was used to perform community analysis using the QIIME2 program for microbial community analysis. The raw read data in FASTQ format output from the next-generation sequencer was trimmed to remove adapter sequences and low QV regions that may be included in the data. Cutadapt was used to remove adapter sequences from DNA sequencing reads. Trimmomatic was used as read trimming tool for Illumina NGS data. The adapter sequence was trimmed using the adapter trimming program “cutadapt” if the Trimming of the region at the end of the read sequence overlapped the corresponding sequence by at least one base (mismatch tolerance: 20%). When reads containing N were present in at least one of Read1 and Read2, both Read1 and Read2 were removed. Trimming of low QV regions was performed on the read data after processing using the QV trimming program “Trimmomatic” under the following conditions. The window of 20 bases is slid from the 5' side, and the area where the average QV is less than 20 is trimmed. After trimming, only the reads with more than 50 bases remaining in both Read1 and Read2 were taken as output. The microbial community analysis based on 16S rRNA sequence was performed on the sequence data trimmed in the previous section using the microbial community analysis program “QIIME2”. The annotation program “sklearn” included in QIIME2 is used to annotate the ASV (OTU) sequences. […]

SMILES: CCCc1nc2c(C)cc(-c3nc4ccccc4n3C)cc2n1Cc1ccc(-c2ccccc2C(=O)O)cc1 [Telmisartan]
- Abundance: Family Erysipelotrichaceae, Genus —, Species — (post-intervention, table row r426): 0
- Abundance: Family Deferribacteraceae, Genus Mucispirillum, Species schaedleri (post-intervention, table row r427): 0
- Abundance: Family Methylobacteriaceae, Genus Methylobacterium, Species Other (post-intervention, table row r428): 0
- Abundance: Family Methanobacteriaceae, Genus Methanobrevibacter, Species — (post-intervention, table row r429): 0
- Abundance: Family Lachnospiraceae, Genus Other, Species Other (post-intervention, table row r431): 0
- Abundance: Family Lachnospiraceae, Genus Dorea, Species — (post-intervention, table row r432): 0
- Abundance: Family Lachnospiraceae, Genus Dorea, Species — (post-intervention, table row r433): 0
- Abundance: Family Lachnospiraceae, Genus —, Species — (post-intervention, table row r434): 0
- Abundance: Family Erysipelotrichaceae, Genus —, Species — (post-intervention, table row r435): 0
- Abundance: Family Other, Genus Other, Species Other (post-intervention, table row r437): 0
- Abundance: Family Ruminococcaceae, Genus Ruminococcus, Species — (post-intervention, table row r438): 11
- Abundance: Family Lachnospiraceae, Genus Other, Species Other (post-intervention, table row r439): 0
- Abundance: Family Erysipelotrichaceae, Genus Clostridum, Species cocleatum (post-intervention, table row r440): 0
- Abundance: Family Clostridiaceae, Genus —, Species — (post-intervention, table row r441): 0
- Abundance: Family S24-7, Genus —, Species — (post-intervention, table row r442): 0
- Abundance: Family Ruminococcaceae, Genus Oscillospira, Species — (post-intervention, table row r443): 10
- Abundance: Family Erysipelotrichaceae, Genus —, Species — (post-intervention, table row r446): 9
- Abundance: Family Streptococcaceae, Genus —, Species — (post-intervention, table row r447): 0
- Abundance: Family Erysipelotrichaceae, Genus —, Species — (post-intervention, table row r448): 0
- Abundance: Family Turicibacteraceae, Genus Turicibacter, Species — (post-intervention, table row r449): 0
- Abundance: Family S24-7, Genus —, Species — (post-intervention, table row r450): 0
- Abundance: Family Ruminococcaceae, Genus Oscillospira, Species — (post-intervention, table row r451): 0
- Abundance: Family Lachnospiraceae, Genus —, Species — (post-intervention, table row r452): 0
- Abundance: Family Erysipelotrichaceae, Genus —, Species — (post-intervention, table row r454): 0
- Abundance: Family Ruminococcaceae, Genus Ruminococcus, Species — (post-intervention, table row r455): 7
- Abundance: Family Moraxellaceae, Genus Psychrobacter, Species Other (post-intervention, table row r456): 0
- Abundance: Family Paenibacillaceae, Genus Other, Species Other (post-intervention, table row r457): 0
- Abundance: Family Lachnospiraceae, Genus Coprococcus, Species — (post-intervention, table row r458): 0
- Abundance: Family Bacillaceae, Genus Bacillus, Species — (post-intervention, table row r459): 0
- Abundance: Family Enterococcaceae, Genus Vagococcus, Species — (post-intervention, table row r460): 0
- Abundance: Family Lachnospiraceae, Genus —, Species — (post-intervention, table row r462): 0
- Abundance: Family Ruminococcaceae, Genus Oscillospira, Species — (post-intervention, table row r466): 0
- Abundance: Family Erysipelotrichaceae, Genus —, Species — (post-intervention, table row r468): 0
- Abundance: Family Other, Genus Other, Species Other (post-intervention, table row r469): 4
- Abundance: Family Clostridiaceae, Genus Clostridium, Species Other (post-intervention, table row r470): 0
- Abundance: Family Ruminococcaceae, Genus —, Species — (post-intervention, table row r473): 0
- Abundance: Family Deferribacteraceae, Genus Mucispirillum, Species schaedleri (post-intervention, table row r474): 0
- Abundance: Family Turicibacteraceae, Genus Turicibacter, Species — (post-intervention, table row r475): 0
- Abundance: Family [Mogibacteriaceae], Genus —, Species — (post-intervention, table row r478): 0
- Abundance: Family Lachnospiraceae, Genus Dorea, Species longicateria (post-intervention, table row r480): 0
- Abundance: Family Ruminococcaceae, Genus —, Species — (post-intervention, table row r481): 0
- Abundance: Family Lachnospiraceae, Genus —, Species — (post-intervention, table row r482): 0
- Abundance Erysipelotrichaceae/Allobaculum/— (post, line r8): 622
- Abundance Turicibacteraceae/Turicibacter/— (post, line r9): 786
- Abundance Desulfovibrionaceae/—/— (post, line r10): 6012
- Abundance Clostridiaceae/Other/Other (post, line r11): 723
- Abundance Lactobacillaceae/Lactobacillus/— (post, line r12): 254
- Abundance Streptococcaceae/Lactococeus/— (post, line r13): 1948
- Abundance Bacteroidaceae/Bacteroides/— (post, line r14): 8412
- Abundance [Paraprevotellaceae]/[Prevotella]/— (post, line r15): 7582
- Abundance —/—/— (post, line r16): 6029
- Abundance Deferribacteraceae/Mucispirillum/schaedleri (post, line r17): 1921
- Abundance Bacteroidaceae/Bacteroides/acidifaciens (post, line r18): 2571
- Abundance —/—/— (post, line r19): 2764
- Abundance Verrucomicrobiaceae/Akkermansia/muciniphila (post, line r20): 320
- Abundance Enterobacteriaceae/Other/Other (post, line r22): 40
- Abundance Lactobacillaceae/Lactobacillus/— (post, line r23): 513
- Abundance S24-7/—/— (post, line r24): 411
- Abundance Lachnospiraceae/—/— (post, line r25): 1545
- Abundance Peptostreptocpccaceae/—/— (post, line r26): 181
- Abundance Lachnospiraceae/[Ruminococcus]/gnavus (post, line r27): 898
- Abundance Lachnospiraceae/Coprococeus/— (post, line r28): 1468
- Abundance Bifidobacteriaceae/Bifidobacterium/pseudolongum (post, line r29): 111
- Abundance Enterobacteriaceae/Proteus/— (post, line r30): 1153
- Abundance Lactobacillaceae/Lactobacillus/Other (post, line r31): 111
- Abundance S24-7/—/— (post, line r32): 329
- Abundance Porphyromonadaceae/Parabacteroides/distasonis (post, line r33): 1437
- Abundance Clostridiaceae/—/— (post, line r34): 79
- Abundance —/—/— (post, line r35): 536
- Abundance Desulfovibrionaceae/Desulfovibrio/— (post, line r36): 503
- Abundance S24-7/—/— (post, line r37): 271
- Abundance Coriobacteriaceae/Adlercreutzia/— (post, line r38): 135
- Abundance S24-7/—/— (post, line r39): 527
- Abundance Erysipelotrichaceae/Clostridium/cocleatum (post, line r40): 696
- Abundance Ruminococcaceae/Ruminococcus/— (post, line r41): 266
- Abundance Lachnospiraceae/Other/Other (post, line r43): 436
- Abundance Lachnospiraceae/[Ruminococcus]/gnavus (post, line r44): 87
- Abundance Turicibacteraceae/Turicibacter/— (post, line r45): 0
- Abundance Lachnospiraceae/—/— (post, line r46): 253
- Abundance Bacteroidaceae/Bacteroides/— (post, line r47): 2042
- Abundance Ruminococcaceae/Oscillospira/— (post, line r48): 621
- Abundance Clostridiaceae/Other/Other (post, line r49): 70
- Abundance Lachnospiraceae/Roseburia/— (post, line r50): 927
- Abundance Lachnospiraceae/—/— (post, line r51): 698
- Abundance S24-7/—/— (post, line r52): 104
- Abundance Lachnospiraceae/[Ruminococcus]/gnavus (post, line r53): 126
- Abundance Lachnospiraceae/Coprococcus/— (post, line r56): 562
- Abundance S24-7/—/— (post, line r57): 144
- Abundance S24-7/—/— (post, line r58): 410
- Abundance Lachnospiraceae/Other/Other (post, line r60): 245
- Abundance Lachnospiraceae/[Ruminococcus]/gnavus (post, line r61): 686
- Abundance Erysipelotrichaceae/Allobaculum/— (post, line r62): 0
- Abundance Desulfovibrionaceae/Desulfovibrio/C21_c20 (post, line r63): 43
- Abundance S24-7/—/— (post, line r64): 152
- Abundance Streptococcaceae/Lactococcus/garvieae (post, line r66): 8
- Abundance Enterobacteriaceae/Proteus/— (post, line r68): 386
- Abundance Lachnospiraceae/—/— (post, line r69): 786
- Abundance S24-7/—/— (post, line r70): 74
- Abundance Lachnospiraceae/[Ruminococcus]/gnavus (post, line r71): 331
- Abundance Clostridiaceae/Clostridium/Other (post, line r73): 0
- Abundance Lachnospiraceae/—/— (post, line r74): 15
- Abundance Clostridiaceae/Other/Other (post, line r75): 49
- Abundance S24-7/—/— (post, line r78): 101
